“Also recorded” adds a separate entry of the source.
Assays:
[1] = test system: sporozoites of Eimeria tenella; experiment: In vitro anti-sporozoite activity by MTT reduction assay; type: cell-based; details: peaks separated by semi-preparative HPLC; compared to crude powder in equivalent concentrations
Protocol: Further, an in vitro method based on 3-(4,5-Dimethyl-2-thiazolyl)-2,5-diphenyl-2H-tetrazolium bromide (MTT) reduction assay was developed to evaluate the anti-sporozoite activity of plant extracts as a measure of the viability of the sporozoites. The optimized method included the preparation, sterilization and purification of sporozoites, followed by incubation of sporozoite suspension (minimum of 10^5 cells/ml) with required concentration of plant extract. The plant samples were prepared by mixing crude powder into a known volume of distilled water to achieve the specific ppm, vortexed for 2 min and filtered through a 0.2μ syringe filter. Following 24 h of incubation with the plant extracts, the sporozoites were thoroughly washed and then MTT assay was performed. MTT-PMS solution (0.2 millimolar each) is incubated with the sporozoite suspension (at 1:10 ratio) for 2 h at 41° C. […] The purple dye formazan is dissolved in 200 ul DMSO and the absorbance is measured at 530 nm against a reference wavelength of 630 nm.
Q. infectoria gall nut crude powder was fractionated using different solvent by column chromatography. The sample from each of the fractions was evaluated for their anti-sporozoite activity.
These four compounds were separated by semi-preparative HPLC and anti-sporozoite activity was evaluated in comparison to the crude powder in equivalent concentrations.

[2] = test system: E. maxima (isolate ID NKL/11/Ac1); experiment: Example 14: in vivo anticoccidial trial in Cobb 400 broilers challenged with E. maxima; set-up: species or system Eimeria maxima; details: day 6 post challenge
From the text: The trial was designed with 11 treatment groups with 2 replicates per groups and 12 male birds per replicate. The groups included (1) uninfected control, (2) infected control, (3) positive control groups supplemented with Salinomycin (Coxistac) at the recommended dosage, (4) treatment group treated with 20 and 50 g/ton of pure THB, (5) encapsulated THB at 46.3, 92.6 and 185.2 g/ton of feed, and (6) microemulsion of THB at 138.9, 277.8 and 416.7 g/ton of feed. […] The parameters evaluated were lesion scoring on day 6 post challenge and oocysts shedding on day 7 post-challenge.
The trial was conducted at the R & D poultry farm facility of Kemin Animal Nutrition and Health (India), Gummidipundi. Straight run commercial hybrid broiler chickens, Gallus domesticus (Var. Vencobb 400) were used for the study. Day old male chicks were procured from Shanthi hatcheries, Coimbatore, India. Birds were weighed and examined for general health at receipt. The birds were individually identified by wing bands. The chicks were housed in mild steel cages which were cleaned, disinfected using Virkon S (Du Pont, India) and painted earlier. The birds were provided with ad libitum feed and water. No water sanitizers or antimicrobial compounds were used in the water or in the feed. The experimental design is detailed in Table 13. As this was a preliminary study to evaluate the effect of encapsulated and microemulsion of THB in controlling coccidiosis only 2 replicates were maintained.
The birds were fed with either feed containing no anticoccidial agent, THB, encapsulated THB, microemulsion of THB or Salinomycin (Coxistac, Pfizer, India) incorporated in the feed from day 1. THB was obtained from J P N Pharma, Mumbai, India
The oocysts of E. maxima (isolate ID NKL/11/Ac1) that were maintained at the Department of Veterinary Parasitology, Madras Veterinary College, Chennai were used for the induction of coccidiosis in the trial birds. The origin of the isolate was a broiler bird with clinical coccidiosis, and they were propagated in vivo to yield oocyst quantities sufficient for the study. […]

[3] = test system: mixed culture of oocysts of the species E. tenella, E. acervulina and E. maxima; experiment: In vivo challenge trial in broiler birds with mixed infection of coccidiosis (Examples 3, 10, 13); details: Example 10, 11, 22 and 55 ppm
[4] = test system: E. tenella (Houghton strain); experiment: Example 1 screening trial: Q. infectoria in controlling caecal coccidiosis in broiler chickens; type: in vivo, Eimeria tenella; details: day 7 post infection; average of three replicates; Q. infectoria 100 g/ton feed, Coxistac 1000 g/ton
Protocol: The screening trial was conducted at a poultry farm facility located in Gummidipundi, India. Straight run commercial hybrid broiler chickens, Gallus domesticus (Var. Vencobb 400) were used for the study. Day old male chicks were procured, weighed individually, wing banded, and randomly segregated into groups. The experimental design is detailed in Table 1.
The treated birds were fed with plant extract incorporated in the feed from day 1 (Table 2). The crude powders of Q. infectoria gall nut were procured from Pooja herbs, Mumbai, India. […]
The excreta of the birds were monitored daily from the day 1 post infection to day 10 for their consistency, presence of blood, mucus, undigested feed, and orange color. […]
The mortality of the birds was recorded on a daily basis and post mortem was carried out to confirm the cause of death.
On day 5 and 7 post infection, 2 birds from each of the groups were sacrificed by cervical dislocation and the intestine was cut open. The caeca of the birds were scored for coccidiosis lesions. […]
Triplicate samples of the excreta of the birds were collected randomly from the tray kept below the cages and the oocyst per gram was evaluated.

[5] = Example 15: compatibility with Tiamulin in commercial broilers (Ross 308), 42 days; type: in vivo, Gallus domesticus (Var. Ross 308); details: used in combination in feed of broilers
Protocol: Experimental facility and study design. An in vivo trial was conducted at Ramadootha poultry farm, Hyderabad, India. Straight run commercial hybrid broiler chickens, Gallus domesticus (Var. Ross 308) were used for the study. Day old male chicks were procured from Suguna Broilers, India. The birds were weighed individually, wing banded, and randomly segregated into groups. The experimental design is detailed in Table 18.
Details of treatment groups. The treated birds were fed with supplements incorporated in the feed from day 1 (Table 22).
Parameters analyzed. The parameters that were chosen for analyses were body weight, feed conversion ratio (FCR) on a weekly basis, mortality and leg weakness on daily basis.
Mean body weight. Birds from each of the groups were removed and weighed individually every week to calculate the weight gain. The cumulative average weight gain of the 8 replicates of each of the group was taken as the mean weight/week.
Feed Conversion ratio (FCR). The total feed consumption was monitored regularly and FCR was arrived at by dividing the feed consumed per bird by the final weight per bird.
Mortality. Mortality was recorded on daily basis and the total mortality was calculated and expressed as %. […]
Leg weakness. All birds were examined every day for the major clinical signs, leg weakness which was scored on a 0 to 4 scale. […]

Row | SMILES | Anti-sporozoite activity of the four major HPLC peaks (MTT) [1] | Lesion score (mid-gut) ([2]; pure THB at 25 and 50 ppm) | Lesion score (mid-gut) ([2]; pure THB at 25 and 50 ppm, listed as THB) | Dose response (lesion score, OPG) [3] | Lesion score for E. tenella, E. maxima and E. acervulina ([3]; day 5 post infection, vs infected control and Salinomycin) | Average Oocysts Per Gram Excreta [4] | Compatibility with Tiamulin [5] | Lesion score (mid-gut) ([2]; Coxistac at 500 g/ton of feed, vs infected control)
1 | O=C(O)c1cc(O)c(O)c(O)c1 (single isomer, unassigned) [gallic acid, 3,4,5-trihydroxybenzoic acid] | best anti-sporozoite activity | comparable efficacy | significant improvement in lesions scores when compared to the positive control | Dose dependent response was observed with no significant difference between gallic acid at 22 and 55 ppm | significant reduction in the score for all the three tested species |  |  | 
2 | CC[C@@H](C(=O)[C@@H](C)[C@@H](O)[C@H](C)[C@@H]1O[C@@H]([C@@H](CC)C(=O)O)CC[C@@H]1C)[C@H]1O[C@]2(C=C[C@@H](O)[C@]3(CC[C@@](C)([C@H]4CC[C@](O)(CC)[C@H](C)O4)O3)O2)[C@H](C)C[C@@H]1C [Salinomycin, reference compound] |  |  |  |  |  | did not show any indication of reduction of oocysts | indicates interaction | no significant reduction; also recorded: showed a reduction in lesion scores
